# Source: patent US6620820B2, “Inhibitors of bone reabsorption and antagonists of vitronectin receptors” (Hoechst Aktiengesellschaft, priority 1996, dated 2003)
# Biological target: T1, human vitronectin receptor (VnR) αVβ3 (Homo sapiens, UniProt P05106+P06756)
# T1 construct: Human vitronectin receptor is isolated from the human placenta using the method of Pytela et al; from tissue; host or cells: human placenta (alternatively 293 cells cotransfected with αV and β3 DNA)
# Assay: Inhibition of the binding of Kistrin to human vitronectin receptor (VnR) αVβ3: ELISA test (Kistrin/VnR)
# Details: plates coated with Kistrin, test method 2
# Description: Nunc Maxisorb 96-well microtiter plates are coated, at 4° C. overnight, with a solution of human vitronectin (0.002 mg/ml, 0.05 ml/well) in PBS (phosphate-buffered sodium chloride solution). The plates are washed twice with PBS/0.05% Tween 20 and blocked by incubating them (for 60 min) with bovine serum albumin (BSA, 0.5%, RIA grade or better) in tris-HCl (50 mM), NaCl (100 mM), MgCl2 (1 mM), CaCl2 (1 mM), MnCl2 (1 mM), pH 7. Solutions of known inhibitors and of the test substances, in concentrations of 2×10^−12−2×10^−6 mol/l, are prepared in assay buffer [BSA (0.5%, RIA grade or better) in tris-HCl (50 mM/l), NaCl (100 mM), MgCl2 (1 mM), CaCl2 (1 mM), MnCl2 (1 mM), pH 7]. The blocked plates are emptied and in each case 0.025 ml of this solution, which contains a defined concentration (from 2×10^−12 to 2×10^−6) of either a known inhibitor or a test substance, is added to each well. 0.025 ml of a solution of the vitronectin receptor in the test buffer (0.03 mg/ml) is pipetted into each well of the plate and the plate is then incubated at room temperature on a shaker for 60-180 min. In the meantime, a solution (6 ml/plate) of a murine monoclonal antibody which is specific for the β3 subunit of the vitronectin receptor is prepared in the assay buffer (0.0015 mg/ml). A second rabbit antibody, which represents an anti-mouse Fc HRP antibody conjugate, is added to this solution (0.001 ml of stock solution/6 ml of the murine mono-clonal anti-β3 antibody solution) and this mixture of the murine anti-β3 antibody and the rabbit anti-mouse Fc HRP antibody conjugate is allowed to incubate while the receptor/inhibitor incubation is in progress. The test plates are washed 4 times with PBS solution containing 0.05% Tween-20 and 0.05 ml of the antibody mixture is in each case pipetted into each well of the plate, which is then incubated for 60-180 min. The plate is washed 4 times with PBS/0.05% Tween-20 and then developed with 0.05 ml/well of a PBS solution which contains 0.67 mg/ml o-phenylenediamine and 0.012% H2O2. Alternatively, o-phenylenediamine can be used in a buffer (pH 5) which contains Na3PO4 (50 mM) and citric acid (0.22 mM). The color development is stopped with 1N H2SO4 (0.05 ml/well). The absorption of each well is measured at 492-405 nm and the data are evaluated using standard methods.
# Inhibition of the binding of Kistrin to human vitronectin receptor (VnR) αVβ3: ELISA test
# (In the listing of the test results, test method 2 is abbreviated to Kistrin/VnR)
# 1. Purification of Kistrin
# Kistrin is purified using the methods of Dennis et al., as described in Proc. Natl. Acad. Sci. USA 1989, 87, 2471-2475 and PROTEINS: Structure, Function and Genetics 1993, 15, 312-321.
# 2. Purification of human vitronectin receptor (αVβ3) see test method 1.
# 3. Monoclonal antibodies see test method 1.
# The ability of substances to inhibit the binding of Kistrin to the vitronectin receptor can be elucidated using an ELISA test. For this purpose, Nunc 96-well microtiter plates are coated with a solution of Kistrin (0.002 mg/ml) in accordance with the method of Dennis et al., as described in PROTEINS: Structure, Function and Genetics 1993, 15, 312-321. The subsequent experimental implementation of the ELISA test is as described in test method1, item 4.
# T1 sequence (P06756 31-889 limits assumed): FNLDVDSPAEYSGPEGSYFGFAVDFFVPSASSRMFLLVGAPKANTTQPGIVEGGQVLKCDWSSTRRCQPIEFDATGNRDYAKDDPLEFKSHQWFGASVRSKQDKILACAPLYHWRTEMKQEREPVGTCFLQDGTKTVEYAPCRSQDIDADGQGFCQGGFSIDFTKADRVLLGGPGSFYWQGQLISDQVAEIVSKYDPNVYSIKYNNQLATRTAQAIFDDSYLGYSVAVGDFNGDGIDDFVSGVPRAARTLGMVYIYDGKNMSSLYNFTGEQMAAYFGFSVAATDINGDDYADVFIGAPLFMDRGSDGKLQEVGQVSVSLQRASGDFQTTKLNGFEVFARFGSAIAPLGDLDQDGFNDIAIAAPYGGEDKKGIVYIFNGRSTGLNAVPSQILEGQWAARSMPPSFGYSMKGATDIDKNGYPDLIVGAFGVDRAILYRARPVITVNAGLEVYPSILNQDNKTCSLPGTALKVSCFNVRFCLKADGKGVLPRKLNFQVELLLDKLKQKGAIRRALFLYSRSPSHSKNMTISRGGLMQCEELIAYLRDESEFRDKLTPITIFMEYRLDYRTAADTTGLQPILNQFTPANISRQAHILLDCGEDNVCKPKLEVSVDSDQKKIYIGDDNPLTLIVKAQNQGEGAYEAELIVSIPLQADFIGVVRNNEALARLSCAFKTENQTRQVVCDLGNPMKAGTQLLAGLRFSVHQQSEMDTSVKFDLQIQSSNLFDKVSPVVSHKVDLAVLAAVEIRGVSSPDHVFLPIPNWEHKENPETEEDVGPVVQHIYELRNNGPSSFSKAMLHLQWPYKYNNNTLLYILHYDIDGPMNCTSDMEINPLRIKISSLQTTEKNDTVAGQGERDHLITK
# T1 sequence (P06756 891-1048 partner limits assumed): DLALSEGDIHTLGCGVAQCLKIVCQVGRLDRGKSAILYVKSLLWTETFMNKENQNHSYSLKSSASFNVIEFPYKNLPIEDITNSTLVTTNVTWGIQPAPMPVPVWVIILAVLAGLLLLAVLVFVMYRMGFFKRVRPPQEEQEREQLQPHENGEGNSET
# T1 sequence (P05106 27-788): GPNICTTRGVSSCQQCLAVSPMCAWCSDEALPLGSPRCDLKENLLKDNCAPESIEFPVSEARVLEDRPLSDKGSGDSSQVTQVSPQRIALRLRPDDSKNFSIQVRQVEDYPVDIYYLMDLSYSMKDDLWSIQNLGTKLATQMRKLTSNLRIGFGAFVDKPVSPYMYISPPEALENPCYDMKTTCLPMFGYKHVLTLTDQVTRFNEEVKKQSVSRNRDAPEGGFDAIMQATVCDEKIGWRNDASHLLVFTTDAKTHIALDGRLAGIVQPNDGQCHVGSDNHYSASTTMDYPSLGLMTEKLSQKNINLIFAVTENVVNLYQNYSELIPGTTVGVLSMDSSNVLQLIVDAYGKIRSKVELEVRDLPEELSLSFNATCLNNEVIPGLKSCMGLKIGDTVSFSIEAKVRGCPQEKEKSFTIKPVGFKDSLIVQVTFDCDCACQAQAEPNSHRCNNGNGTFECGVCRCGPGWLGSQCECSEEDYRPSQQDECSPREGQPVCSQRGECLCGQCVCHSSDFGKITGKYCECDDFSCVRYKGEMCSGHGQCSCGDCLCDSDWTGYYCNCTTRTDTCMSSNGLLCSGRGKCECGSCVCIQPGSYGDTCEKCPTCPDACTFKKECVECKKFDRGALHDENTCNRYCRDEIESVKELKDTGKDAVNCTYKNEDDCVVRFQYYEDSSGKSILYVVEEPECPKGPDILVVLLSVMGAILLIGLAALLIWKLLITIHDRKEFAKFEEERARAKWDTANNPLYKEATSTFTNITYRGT
row,IC50,Compound
1,20 nM,"O=C(CN1C(=O)N[C@@H](CCCNC2=NCCN2)C1=O)NC[C@H](NC(=O)OCc1ccccc1)C(=O)O [Example 1, (2S)-Benzoylcarbonylamino-3-[2-((4S)-(3-(4,5dihydro-1H-imidazol-2-ylamino)propyl)-2,5-dioxoimidazolidin-1-yl)acetylamino]propionic Acid]"
2,40 nM,"O=C(CN1C(=O)N[C@@H](CCCNc2nc3ccccc3[nH]2)C1=O)NC[C@H](NC(=O)OCc1ccccc1)C(=O)O [Example 5, (2S)-Benzyloxycarbonylamino-3-[((4S)-(3-(benzimidazolyl-2-amino)-propyl)-2,5-dioxoimidazolidin-1-yl)acetylamino]propionic Acid]"
3,130 nM,"O=C(CN1C(=O)N[C@@H](CC(=O)NNC2=NCCCN2)C1=O)NC[C@H](NC(=O)OCc1ccccc1)C(=O)O [Example 8, (2S)-Benzyloxycarbonylamino-3-[2-(2,5-dioxo-(4S)-(N′-(1,4,5,6-tetrahydro-pyrimidin-2-yl)hydrazinocarbonylmethyl)imidazolidin-1-yl)acetylamino]propionic Acid]"
4,360 nM,"N=C(N)NC(=O)NC[C@@H]1NC(=O)N(CC(=O)NC[C@H](NC(=O)OCc2ccccc2)C(=O)O)C1=O [Example 3, (2S)-Benzyloxycarbonylamino-3-[((4S)-(guanidinoacylaminomethyl)-2,5-dioxoimidazolidin-1-yl)acetylamino]propionic Acid]"
5,1660 nM,"O=C(CN1C(=O)N[C@@H](CCCNc2ncccn2)C1=O)NC[C@H](NC(=O)OCc1ccccc1)C(=O)O [Example 4, (2S)-Benzyloxycarbonylamino-3-[((4S)-(3-(2-pyrimidylamino)propyl)-2,5-dioxoimidazolidin-1-yl)acetylamino]propionic Acid]"
6,580 nM,"O=C(CN1C(=O)N[C@@H](CC(=O)NNC2=NCCN2)C1=O)NC[C@H](NC(=O)OCc1ccccc1)C(=O)O [Example 7, (2S)-Benzyloxycarbonylamino-3-[2-((4S)-(N′-(4,5-dihydro-1H-imidazol-2-yl)-hydrazinocarbonylmethyl]-2,5-dioxoimidazolidin-1-yl)acetylamino]propionic Acid]"
7,20 nM,"N=C(N)NC(=O)CC[C@@H]1NC(=O)N(CC(=O)NC[C@H](NC(=O)OCc2ccccc2)C(=O)O)C1=O [Example 19, (2S)-Benzyloxycarbonylamino-3-[2-((4S)-(3-guanidino-3-oxopropyl) -2,5-dioxoimidazolidin-1-yl)acetylamino]propionic Acid]"

row,Compound,IC50
1,O=C(CN1C(=O)N[C@@H](CCc2nc3ccccc3[nH]2)C1=O)NC[C@H](NC(=O)OCc1ccccc1)C(=O)O [Example 18],810 nM

# Biological target: T1, human vitronectin receptor (VnR) αVβ3
# Assay: Inhibition of the binding of human vitronectin (Vn) to human vitronectin receptor (VnR) αVβ3: ELISA test (Vn/VnR)
# Details: plates coated with human vitronectin, test method 1
# Excerpt: Inhibition of the binding of human vitronectin (Vn) to human vitronectin receptor (VnR) αVβ3: ELISA-Test.
# (In the listing of the test results, test method 1 is abbreviated to Vn/VnR)
# 1. Purification of human vitronectin
# Human vitronectin is isolated from human plasma and purified by affinity chromatography using the method of Yatohyo et al., Cell Structure and Function, 1988, 23, 281-292.
# 2. Purification of human vitronectin receptor (αVβ3)
# Human vitronectin receptor is isolated from the human placenta using the method of Pytela et al., Methods Enzymol. 1987, 144, 475. Human vitronectin receptor αVβ3 can also be isolated from some cell lines (for example from 293 cells, a human embryonic kidney cell line) which are cotransfected with DNA sequences for the two subunits, αV and β3, of the vitronectin receptor. The subunits are extracted with octylglycoside and subsequently chromatographed on concanavalin A, heparin-Sepharose and S-300. […]
# Nunc Maxisorb 96-well microtiter plates are coated, at 4° C. overnight, with a solution of human vitronectin (0.002 mg/ml, 0.05 ml/well) in PBS (phosphate-buffered sodium chloride solution). […] The absorption of each well is measured at 492-405 nm and the data are evaluated using standard methods.
row,IC50,Compound
1,8 nM,"O=C(CN1C(=O)N[C@@H](CCCNC2=NCCN2)C1=O)NC[C@H](NC(=O)OCc1ccccc1)C(=O)O [Example 1, (2S)-Benzoylcarbonylamino-3-[2-((4S)-(3-(4,5dihydro-1H-imidazol-2-ylamino)propyl)-2,5-dioxoimidazolidin-1-yl)acetylamino]propionic Acid]"
